# Data as given in US20090036437A1, “PHARMACEUTICAL COMPOSITION COMPRISING PHENOXAZINIUM COMPOUND AS AN ACTIVE INGREDIENT” (priority 2005, published 2009).
# Legend:
# [1] = in vitro growth-inhibiting assay of rat L6 cells; assay type: cell-based; conditions: rat; Table 8; read-out: 50% growth-inhibiting concentration (nM) cytotoxicity L6
# Description: Rat L6 cell (rat skeletal myoblast cell) was cultured in RPMI-1640 culture medium supplemented with 1% of L-glutamine (200 mM) and fetal calf serum (10%) under 5% CO2 concentration at 37° C. A test sample was prepared by dissolving the test compounds according to the present invention and a positive control drug in DMSO to a predetermined concentration. After pre-culture had been finished, the culture medium containing the cells in a logarithmic phase was placed into each well of a 96-well culture plate, and the test sample comprising the predetermined amount of the test compound, and DMSO without the test compound were added to the wells in duplicate.
# (§1) After incubation of the culture plate for 72 hours in an incubator, a growth-inhibiting activity was assayed as follows. Alamar Blue aqueous solution (10 μL) was added to each well followed by a further two-hour culture. The culture plate was then attached to a fluorescence micro titer plate reader (Spectramax Gemeni XS; U.S. Molecular Device Co.), and the intensity of fluorescence at 588 nm was detected with an excitation wave length of 536 nm. A residual ratio of L6 cells was calculated with respect to a group treated with the test sample and a control group. A growth-inhibiting ratio for L6 cells was then calculated from the resulting residual ratio in accordance with the following equation to determine 50% growth-inhibiting concentration (EC50).
# Growth-inhibiting ratio (%)=[1−(C−A)/(B−A)]×100 • A: Initial number of cells; • B: Number of the cells in the control after 3 days; and • C: Number of the cells treated with the test sample after 3 days Determination of Pharmaceutical effect for Chloroquine-Resistant Malaria
# [2] = tested on: Trypanosoma brucei rhodensiense (STIB 900 strain); assay: in vitro growth-inhibiting screening assay, protozoa of African trypanosomiasis; assay type: cell-based
# Description: This test was done using a trypomastigote of the protozoa of Trypanosoma brucei rhodensiense (STIB 900 strain) ranging in blood stream. MEM medium sterilized by filtration was supplemented with 25 mM of N-2-hydroxyethylpiperazine-2-ethanesulfonic acid (HEPES), 1 g/L of glucose, 1% of MEM non-essential amino acids, 0.2 mM of 2-mercaptoethanol, 2 mM of sodium pyruvate, 1 mM of hypoxathine and 15% of heat-treated horse serum. The protozoa were cultured under CO2 concentration of 5%, at 37° C.
# A test sample was prepared by dissolving the test compounds according to the present invention and a positive control drug (Melarsoprol) in DMSO to a predetermined concentration. Culture medium containing the protozoa of 8×10^3, and the test sample comprising the predetermined amount of the test compound, and DMSO without the test compound were added into each well of 96-well culture plate to a final volume of 100 μL in duplicate.
# as §1, with “Co.),” for “Co.), and”, “with” for “with an”, “nm to calculate an infection” for “nm. A residual”, “the protozoa” for “L6 cells was calculated”, “ratio” for “ratio for L6 cells”, “infection” for “residual”
# Growth-inhibiting ratio (%)=[1−(b−a)/(c−a)]×100 • a: Initial infection ratio; • b: Infection ratio of the test sample group; and • c: Infection ratio of the control group.
# A selective toxicity coefficient, which is used as an index for the selective toxicity for the protozoa of African trypanosomiasis, was calculated by the following equation, and the pharmaceutical effect was determined.
# Selective toxicity coefficient=(EC50 value of the test sample for rat L6 cell)/(EC50 value of the test sample for the protozoa of African typanosomiasis)
structure (smiles),measurement,setting,value
"Nc1nc(N)nc(Nc2ccc([As]3SCC(CO)S3)cc2)n1 (stereo not drawn) [Melarsoprol, reference compound]",EC50 at 72 h,[1],7800 nM
same,Selective toxicity,[2]; EC50 rat L6 cell / EC50 protozoa of African trypanosomiasis,1300
same,EC50,"[2]; Trypanosoma brucei, STIB900, 72 h, read-out: 50% growth-inhibiting concentration (nM) Trypanosoma brucei rhod.",6 nM
